The results in this text go back to patent publication US12281057B2 (VERTEX PHARMACEUTICALS INCORPORATED, priority 2017, dated 2025).

pIC50: −log10 of the molar value.

In general, pIC50 refers to the IC50 on a negative log10 scale, so that one unit is a factor of ten.

truncated form of human NaV 1.8 with full channel activity, sequence (Q9Y5Y9 126-1722 limits assumed): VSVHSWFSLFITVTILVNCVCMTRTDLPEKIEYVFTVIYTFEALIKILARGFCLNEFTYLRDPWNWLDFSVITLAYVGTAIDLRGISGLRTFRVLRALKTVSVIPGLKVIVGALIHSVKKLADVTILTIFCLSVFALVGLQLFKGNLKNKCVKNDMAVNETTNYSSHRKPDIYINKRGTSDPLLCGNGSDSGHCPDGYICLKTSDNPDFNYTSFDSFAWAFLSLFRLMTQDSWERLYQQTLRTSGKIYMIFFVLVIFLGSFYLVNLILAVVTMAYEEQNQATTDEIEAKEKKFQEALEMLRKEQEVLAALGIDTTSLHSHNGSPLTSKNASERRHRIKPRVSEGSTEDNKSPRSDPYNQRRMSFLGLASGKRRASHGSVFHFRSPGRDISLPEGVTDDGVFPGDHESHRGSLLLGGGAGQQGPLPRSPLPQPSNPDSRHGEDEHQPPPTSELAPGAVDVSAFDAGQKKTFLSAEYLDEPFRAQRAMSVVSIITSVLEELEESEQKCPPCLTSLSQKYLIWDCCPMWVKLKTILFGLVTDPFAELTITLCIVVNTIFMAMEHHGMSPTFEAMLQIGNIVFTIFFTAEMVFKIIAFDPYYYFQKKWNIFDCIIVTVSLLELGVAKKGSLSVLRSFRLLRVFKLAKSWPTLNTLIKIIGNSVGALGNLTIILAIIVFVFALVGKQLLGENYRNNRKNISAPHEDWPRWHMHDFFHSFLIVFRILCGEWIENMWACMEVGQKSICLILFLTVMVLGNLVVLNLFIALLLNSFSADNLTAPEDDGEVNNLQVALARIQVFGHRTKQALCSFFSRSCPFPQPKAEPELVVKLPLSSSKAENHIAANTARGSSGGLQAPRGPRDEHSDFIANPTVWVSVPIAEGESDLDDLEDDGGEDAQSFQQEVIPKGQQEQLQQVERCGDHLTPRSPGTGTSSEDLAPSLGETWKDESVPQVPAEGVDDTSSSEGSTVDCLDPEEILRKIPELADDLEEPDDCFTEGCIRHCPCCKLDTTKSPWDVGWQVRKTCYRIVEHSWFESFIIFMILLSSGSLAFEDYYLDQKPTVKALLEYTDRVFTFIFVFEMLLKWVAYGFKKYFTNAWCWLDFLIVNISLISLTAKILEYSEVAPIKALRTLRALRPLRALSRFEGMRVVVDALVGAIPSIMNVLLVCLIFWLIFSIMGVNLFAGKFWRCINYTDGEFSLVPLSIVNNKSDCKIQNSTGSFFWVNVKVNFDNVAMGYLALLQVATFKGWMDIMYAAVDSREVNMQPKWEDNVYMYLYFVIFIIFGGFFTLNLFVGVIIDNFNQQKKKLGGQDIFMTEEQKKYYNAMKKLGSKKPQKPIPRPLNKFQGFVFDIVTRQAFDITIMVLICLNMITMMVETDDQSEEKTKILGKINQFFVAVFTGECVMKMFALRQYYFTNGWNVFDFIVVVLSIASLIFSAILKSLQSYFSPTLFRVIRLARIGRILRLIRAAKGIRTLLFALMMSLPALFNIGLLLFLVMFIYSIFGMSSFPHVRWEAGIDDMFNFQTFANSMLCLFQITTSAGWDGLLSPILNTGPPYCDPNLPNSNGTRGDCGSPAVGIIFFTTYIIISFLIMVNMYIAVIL

The first assay concerns the target truncated form of human NaV 1.8 with full channel activity (Homo sapiens, UniProt Q9Y5Y9). Briefly: E-VIPR Assay Method A for detecting and measuring Nav inhibition (HEK cells, membrane potential FRET dyes, electrical stimulation). Type of assay: cell-based. As to conditions: HEK cells expressing human NaV 1.8, HS (human serum) in compound loading buffer, 11 point dose response, top dose 3 μM, Table 20, read-out: Nav 1.8 MedChem Optical Assay EVIPR Assay Method A HS IC50. An outline of the steps:
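Read-out: FRET membrane-potential dye ratio (460/580 nm) before and during E-VIPR field stimulation at 10 Hz for 10 s, expressed as % activity between DMSO and positive controls. Cells: HEK with truncated human NaV1.8; compound preincubated 30 min at room temp, final DMSO 0.625%.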
With `COc1cc(OC(F)(F)F)ccc1Oc1ccc(C(F)(F)C(F)(F)F)cc1C(=O)Nc1ccc(F)c(C(N)=O)c1` [Compound 19, N-(3-carbamoyl-4-fluoro-phenyl)-2-[2-methoxy-4-(trifluoromethoxy)phenoxy]-5-(1,1,2,2,2-pentafluoroethyl)benzamide], the pIC50 was 8.00.
Turning to `COc1cc(OC(F)(F)F)ccc1Oc1ccc(C(F)(F)F)c(F)c1C(=O)Nc1ccc(C(N)=O)c(F)c1` [Compound 16, N-(4-carbamoyl-3-fluoro-phenyl)-2-fluoro-6-[2-methoxy-4-(trifluoromethoxy)phenoxy]-3-(trifluoromethyl)benzamide], the negative logarithm of the IC50 (pIC50) was 8.15.

The same assay, now with this note: HEK cells expressing human NaV 1.8, HS (human serum) in compound loading buffer, 11 point dose response, top dose 3 μM, Table 20A, read-out: Nav 1.8 MedChem Optical Assay EVIPR Assay Method A HS IC50.
Take `NC(=O)c1cc(NC(=O)c2c(Oc3ccc(OC(F)(F)F)cc3)ccc(C(F)(F)F)c2F)cc[n+]1[O-]` [Compound 110, 4-[[2-Fluoro-6-[4-(trifluoromethoxy)phenoxy]-3-(trifluoromethyl)benzoyl]amino]-1-oxido-pyridin-1-ium-2-carboxamide]: the negative-log IC50 (pIC50) is 7.26.
As for `NC(=O)c1cc(NC(=O)c2c(Oc3ccc(OC(F)(F)F)cc3)ccc(C(F)F)c2F)ccc1F` [Compound 74, N-(3-Carbamoyl-4-fluoro-phenyl)-3-(difluoromethyl)-2-fluoro-6-[4-(trifluoromethoxy)phenoxy]benzamide], the negative-log IC50 (pIC50) is 7.66.
Regarding `NC(=O)c1cc(NC(=O)c2c(Oc3ccc(OC(F)(F)F)cc3)ccc(C(F)F)c2F)ccn1` [Compound 83, 4-[[3-(Difluoromethyl)-2-fluoro-6-[4-(trifluoromethoxy)phenoxy]benzoyl]amino]pyridine-2-carboxamide], the pIC50 was 7.32.
As to `[2H]C([2H])([2H])Oc1cc(OC(F)(F)F)ccc1Oc1cc(OC(F)(F)F)ccc1C(=O)Nc1ccnc(C(N)=O)c1` [Compound 147, 4-[[2-[2-(Trideuteriomethoxy)-4-(trifluoromethoxy)phenoxy]-4-(trifluoromethoxy)benzoyl]amino]pyridine-2-carboxamide], the negative-log IC50 (pIC50) was 6.89.
In the case of `COc1cc(OC(F)(F)F)ccc1Oc1cc(Cl)cc(F)c1C(=O)Nc1ccc(C(N)=O)nc1` [Compound 185, 5-[[4-Chloro-2-fluoro-6-[2-methoxy-4-(trifluoromethoxy)phenoxy]benzoyl]amino]pyridine-2-carboxamide], the pIC50 is 7.18.
Consider `[2H]C([2H])([2H])Oc1c(Oc2ccc(Cl)c(F)c2C(=O)Nc2ccnc(C(N)=O)c2)ccc(OC(F)(F)F)c1F` [Compound 220, 4-[[3-Chloro-2-fluoro-6-[3-fluoro-2-(trideuteriomethoxy)-4-(trifluoromethoxy)phenoxy]benzoyl]amino]pyridine-2-carboxamide], for which the pIC50 was 8.30.
`COc1cc(OC(F)(F)F)ccc1Oc1cc(C(F)(F)F)cnc1C(=O)Nc1ccc(F)c(C(N)=O)c1` [Compound 32, N-(3-Carbamoyl-4-fluoro-phenyl)-3-[2-methoxy-4-(trifluoromethoxy)phenoxy]-5-(trifluoromethyl)pyridine-2-carboxamide]: the negative-log IC50 (pIC50) is 7.26.
Still for that read-out and setting: then `NC(=O)c1cc(NC(=O)c2c(Oc3ccc(OC(F)(F)F)cc3)ccc3c2CCC3(F)F)ccc1F` [Compound 190, N-(3-Carbamoyl-4-fluoro-phenyl)-1,1-difluoro-5-[4-(trifluoromethoxy)phenoxy]indane-4-carboxamide], with 7.49; and `COc1cc(OC(F)(F)F)ccc1Oc1cc(Cl)c(C)c(F)c1C(=O)Nc1cc(C(N)=O)ncc1C` [Compound 211, 4-[[4-Chloro-2-fluoro-6-[2-methoxy-4-(trifluoromethoxy)phenoxy]-3-methyl-benzoyl]amino]-5-methyl-pyridine-2-carboxamide], with 8.22.
Consider `NC(=O)c1ccc(NC(=O)c2c(Oc3ccc(OC(F)(F)F)cc3)ccc3c2CCC3(F)F)cn1` [Compound 192, 5-[[1,1-Difluoro-5-[4-(trifluoromethoxy)phenoxy]indane-4-carbonyl]amino]pyridine-2-carboxamide], for which the negative-log IC50 (pIC50) is 6.38.
Still for that read-out and setting: then `[2H]C([2H])([2H])Oc1cc(OC(F)(F)F)ccc1Oc1cc(C2CC2)ncc1C(=O)Nc1ccc(F)c(C(N)=O)c1` [Compound 88, N-(3-Carbamoyl-4-fluoro-phenyl)-6-cyclopropyl-4-[2-(trideuteriomethoxy)-4-(trifluoromethoxy)phenoxy]pyridine-3-carboxamide], with 7.31.
For the molecule `COc1cc(OC(F)(F)F)ccc1Oc1ccc(C(F)(F)F)c(F)c1C(=O)Nc1cc(F)cc(C(N)=O)c1` [Compound 100, N-(3-carbamoyl-5-fluoro-phenyl)-2-fluoro-6-[2-methoxy-4-(trifluoromethoxy)phenoxy]-3-(trifluoromethyl)benzamide], the pIC50 is 8.05.
Turning to `[2H]C([2H])([2H])Oc1c(Oc2cc(Cl)c(C([2H])([2H])[2H])c(F)c2C(=O)Nc2ccnc(C(N)=O)c2)ccc(OC(F)(F)F)c1F` [Compound 222, 4-[[4-Chloro-2-fluoro-6-[3-fluoro-2-(trideuteriomethoxy)-4-(trifluoromethoxy)phenoxy]-3-(trideuteriomethyl)benzoyl]amino]pyridine-2-carboxamide], the pIC50 was 8.52.
Still for that read-out and setting: then `COc1cc(F)ccc1Oc1ccc(OC(F)(F)F)cc1C(=O)Nc1ccnc(C(N)=O)c1` [Compound 157, 4-[[2-(4-Fluoro-2-methoxy-phenoxy)-5-(trifluoromethoxy)benzoyl]amino]pyridine-2-carboxamide], with 6.00; and `COc1cc(OC(F)(F)F)ccc1Oc1ccc(C(F)(F)C(F)(F)F)cc1C(=O)Nc1ccnc(C(N)=O)c1` [Compound 81], with 7.42.
For `[2H]C([2H])([2H])Oc1c(Oc2ccc(OC(F)(F)F)c(NC)c2C(=O)Nc2ccnc(C(=O)NC)c2)ccc(OC(F)(F)F)c1F` [Compound 230, 4-[[6-[3-Fluoro-2-(trideuteriomethoxy)-4-(trifluoromethoxy)phenoxy]-2-(methylamino)-3-(trifluoromethoxy)benzoyl]amino]-N-methyl-pyridine-2-carboxamide], the negative logarithm of the IC50 (pIC50) was 6.60.
`NC(=O)c1cc(NC(=O)c2c(Oc3ccc(OC(F)F)cc3F)ccc(C(F)(F)F)c2F)ccn1` [Compound 136, 4-[[6-[4-(Difluoromethoxy)-2-fluoro-phenoxy]-2-fluoro-3-(trifluoromethyl)benzoyl]amino]pyridine-2-carboxamide]: the negative-log IC50 (pIC50) is 6.85.
Turning to `NC(=O)c1cc(NC(=O)c2c(Oc3ccc(OC(F)(F)F)cc3)ccc(C(F)(F)F)c2F)ccc1O` [Compound 85, N-(3-carbamoyl-4-hydroxy-phenyl)-2-fluoro-6-[4-(trifluoromethoxy)phenoxy]-3-(trifluoromethyl)benzamide], the pIC50 was 6.49.
Still for that read-out and setting: then `COc1cc(OC(F)(F)F)ccc1Oc1ccc(C(F)(F)F)c(F)c1C(=O)Nc1cccc(C(N)=O)n1` [Compound 169, 6-[[2-Fluoro-6-[2-methoxy-4-(trifluoromethoxy)phenoxy]-3-(trifluoromethyl)benzoyl]amino]pyridine-2-carboxamide], with 6.95; and `COc1cc(OC(F)(F)F)ccc1Oc1cnc(C(F)(F)F)c(OC)c1C(=O)Nc1cc(C(N)=O)ncc1C` [Compound 144, N-(2-Carbamoyl-5-methyl-4-pyridyl)-3-methoxy-5-[2-methoxy-4-(trifluoromethoxy)phenoxy]-2-(trifluoromethyl)pyridine-4-carboxamide], with 7.64; and `[2H]C([2H])([2H])Oc1c(Oc2ccc(OC(F)(F)F)c(F)c2C(=O)Nc2ccnc(C(N)=O)c2)ccc(OC(F)(F)F)c1F` [Compound 225, 4-[[2-Fluoro-6-[3-fluoro-2-(trideuteriomethoxy)-4-(trifluoromethoxy)phenoxy]-3-(trifluoromethoxy)benzoyl]amino]pyridine-2-carboxamide], with 8.52.
Consider `NC(=O)c1cc(NC(=O)c2cc(C(F)(F)C(F)(F)F)ccc2Oc2ccc(OC(F)(F)F)cc2)ccc1F` [Compound 79, N-(3-Carbamoyl-4-fluoro-phenyl)-5-(1,1,2,2,2-pentafluoroethyl)-2-[4-(trifluoromethoxy)phenoxy]benzamide], for which the pIC50 was 7.16.
The same measure, in the same setting: to `NC(=O)c1cc(NC(=O)c2c(Oc3ccc(OC(F)(F)F)cc3)cnc(C(F)(F)F)c2F)ccc1F` [Compound 62, N-(3-Carbamoyl-4-fluoro-phenyl)-3-fluoro-5-[4-(trifluoromethoxy)phenoxy]-2-(trifluoromethyl)pyridine-4-carboxamide] belongs 7.96; to `COc1cc(OC(F)(F)F)ccc1Oc1cc(C(F)(F)F)ncc1C(=O)Nc1ccc(F)c(C(N)=O)c1` [Compound 30, N-(3-Carbamoyl-4-fluoro-phenyl)-4-[2-methoxy-4-(trifluoromethoxy)phenoxy]-6-(trifluoromethyl)pyridine-3-carboxamide], 7.70; to `COc1cc(F)ccc1Oc1cc(Cl)cc(Cl)c1C(=O)Nc1ccc(C(N)=O)nc1` [Compound 182, 5-[[2,4-Dichloro-6-(4-fluoro-2-methoxy-phenoxy)benzoyl]amino]pyridine-2-carboxamide], 6.39.
In the case of `[2H]C([2H])([2H])Oc1cc(OC(F)(F)F)ccc1Oc1ccc(C(F)(F)F)c(F)c1C(=O)Nc1cc[n+]([O-])c(C(N)=O)c1` [Compound 115, 4-[[2-Fluoro-6-[2-(trideuteriomethoxy)-4-(trifluoromethoxy)phenoxy]-3-(trifluoromethyl)benzoyl]amino]-1-oxido-pyridin-1-ium-2-carboxamide], the negative logarithm of the IC50 (pIC50) is 8.22.
In the case of `COc1c(C(F)(F)F)ccc(Oc2ccc(OC(F)(F)F)cc2)c1C(=O)Nc1ccnc(C(N)=O)c1` [Compound 91, 4-[[2-Methoxy-6-[4-(trifluoromethoxy)phenoxy]-3-(trifluoromethyl)benzoyl]amino]pyridine-2-carboxamide], the negative-log IC50 (pIC50) is 7.40.
